Activity calls are given as the source filed them. No cut-off for these calls is given here.
How the values were obtained:
Format in all cases: functional, cell-based
[1] = system: A549; assay: Cytotoxicity against human A549 cells assessed as reduction in cell viability after 48 hrs by MTS assay; conditions: A549, 48 h
[2] = system: SMMC-7721; assay: Cytotoxicity against human SMMC-7721 cells assessed as reduction in cell viability after 48 hrs by MTS assay; conditions: SMMC-7721, 48 h
[3] = system: HL-60; assay: Cytotoxicity against human HL-60 cells assessed as reduction in cell viability after 48 hrs by MTS assay; conditions: HL-60, 48 h
[4] = system: SW480; assay: Cytotoxicity against human SW480 cells assessed as reduction in cell viability after 48 hrs by MTS assay; conditions: SW480, 48 h
[5] = system: RAW264.7; assay: Inhibition of LPS-induced NO production in mouse RAW264.7 cells at 50 uM incubated for 18 hrs by Griess reagent based assay
[6] = system: MCF7; assay: Cytotoxicity against human MCF7 cells assessed as reduction in cell viability after 48 hrs by MTS assay; conditions: MCF7, 48 h

SMILES | IC50 [1] [µM] | IC50 [2] [µM] | IC50 [3] [µM] | IC50 [4] [µM] | inhibition [5] | IC50 [6] [µM]
COc1cc(C)c2c3c(c(=O)oc2c1)C[C@@H]([C@@]1(C)CC[C@H]2C(C)(C)C(=O)CC[C@@]21C)O3 | > 40 | > 40 | > 40 | > 40 | inactive | > 40
COc1cc(C)c2c3c(c(=O)oc2c1)C[C@@H]([C@@]1(C)CC[C@H]2C(C)(C)[C@@H](O)CC[C@@]21C)O3 | 15.3 | 3.7 | 3.6 | 27.1 | inactive | 13

Source: ChEMBL document CHEMBL4673283, “Penisarins A and B, Sesquiterpene Coumarins Isolated from an Endophytic Penicillium sp” (J Nat Prod, 2020)
